According to patent publication US6548540B2, “Method of treating cancer using dithiocarbamate derivatives” (Charlotte-Mecklenburg Hospital Authority, priority 1998, dated 2003):
Entries after “also recorded” stand apart in the source; their conditions may differ.

Key:
[1] = test system: transcription factor binding to CRE (cyclic AMP response element); assay: EMSA of nuclear protein from treated M1619 cells, binding to CRE; assay type: cell-based, human
Procedure: This dose was chosen to approximate the steady state plasma and tissue concentrations of drug in human subjects on chronic therapy with this agent. Disulfiram was solubilized in dimethylsulfoxide (DMSO) so that the final concentration of DMSO was less than 0.3-0.5%. Equal volumes of DMSO were added to control experiments. Nuclear protein was harvested and electrophoretic mobility gel shift assays were performed using DNA consensus binding sequence for the cyclic-AMP responsive element (CRE) as outlined below. […] Nuclear protein was isolated and DNA binding reactions were performed as previously described in detail (See, […], et al., “Dehydroepiandrosterone and analogs inhibit DNA binding of AP-1 and airway smooth muscle proliferation,” J. Pharmacol. Exper. Ther. 285:[…] (1998); T. Kennedy, et al., “Copper-dependent inflammation and nuclear factor-κB activation by particulate air pollution,” Am. J. Respir. Cell Mol. Biol. 19:366-378 (1998)). Monolayers were washed twice in cold DPBS and equilibrated 10 minutes on ice with 0.7 ml cold cytoplasmic extraction buffer, CEB (10 mM Tris, pH 7.9, 60 mM KCl, 1 mM EDTA, 1 mM DTT) with protease inhibitors, PI (1 mM Pefabloc, 50 μg/ml antipain, 1 μg/ml leupeptin, 1 μg/ml pepstatin, 40 μg/ml bestatin, 3 μg/ml E-64 and 100 μg/ml chymostatin). The detergent Nonidet P-40 (NP-40) was added to a final concentration of 0.1% and cells were dislodged with a cell scraper. Nuclei were pelleted by centrifugation and washed with CEB/PI. […] DNA-protein binding reactions were performed with 2 μg of nuclear protein (as determined by the Pierce method) and 30-80,000 cpm of ^32P-end-labelled double-stranded DNA probe in 10 mM Tris-HCl, pH 7.5, 50 mM NaCl, 0.5 mM EDTA, 0.5 mM DTT (except where indicated), 1 mM MgCl2, 50 μg/ml poly dI-dC, and 4% glycerol. […] Gels were dried and analyzed by autoradiography at -80° C. using an image intensifier screen. […]

[2] = test system: H82 small cell lung cancer cells; assay: Trypan blue cytotoxicity, H82; assay type: cell-based, human; conditions: 0.625 μM disulfiram; 36 hours
Procedure: To assess for cytotoxicity, cells were plated at a density of 50,000 per well on 24 well plates and grown for 24 hours. Disulfiram was then added. After an additional 36 hours, medium was removed and replaced with DPBS containing 0.1% trypan blue. Cell death was assessed by counting the average number of trypan blue positive cells per 10×field in 5 random fields for 4 separate wells.

## CCN(CC)C(=S)SSC(=S)N(CC)CC [Disulfiram, tetraethylthiuram disulfide]
[1]; 5 μM disulfiram alone, treated cells
  DNA-binding to CRE: slightly reduced
[1]; 5 μM disulfiram and 1.6 μM cupric sulfate, cells treated 6, 12 or 24 hour
  transcription factor binding to CRE: substantially interrupts; also recorded: eliminated
[1]; disulfiram 5 μM plus CuSO4 1.6 μM, 8 hours, n=4
  DNA binding of the upper ATF-2 containing complex II (densitometry): by half
[2]
  trypan blue positive cells: 93±12 trypan blue positive cells per well
